For one data set, the system named is AN3CA cells. As to the kind of experiment: In vivo metastasis assay (retro-orbital injection) in NOD/SCID mice. The settings on record: 6 weeks after injection. Here is the method:
All experimental procedures involving animals were conducted in accordance with the institutional guidelines set forth by the Children's Hospital Boston (CHB animal protocol number 11-09-2022). Eight to ten-week-old NOD/SCID mice were housed in a specific pathogen-free facility. To generate a xenograft mouse model, NOD/SCID mice were injected with 2×10^6 cells into right flanks. Cells were resuspended in 0.1 ml of PBS and then mix with 0.1 ml of matrigel. Two cell lines were prepared for xenografts: AN3CA and HEC-1A. Tumor sizes were measured weekly. As for metastasis mouse model, 1×10^6 AN3CA cells—were injected via the retro-orbital sinus as described previously (2). […] Cell proliferation in tumor was determined by staining histological sections with monoclonal antibody against Ki-67 (BD, Cat. No. 556003), and apoptosis was evaluated by terminal uridine deoxynucleotidyl transferase dUTP nick end labeling (TUNEL) assay (in situ cell death detection kit, Promega, Cat. No. G3250) according to manufacturer's protocol.
Next assessed was whether loss of SALL4 could affect tumor invasiveness. […] The invasive potential of these three cell lines in vitro: AN3CA, HEC-1A and Ishikawa cells was compared, and a strong association between SALL4 expression and invasive capacity was detected, with Ishikawa showing the least migration/invasion ability (data not shown). […]

A further data set relates to SALL4A and SALL4B. Nature of the data set: SALL4 knock-down in endometrial cancer cells (Western blot, qRT-PCR). The conditions noted are these: AN3CA and HEC-1A. The format is cell-based, human. An excerpt:
In brief, the expression plasmids for human SALL4A and SALL4B were constructed using FUW-Luc-mCh-puro vector (FIG. 43A). SALL4A or SALL4B mutant preserving the same amino acid sequence, but containing triple-point mutations within the SALL4shRNA1 target nucleotide sequence, which renders the transgenes resistant to SALL4 shRNA targeting, were generated using QuikChange site-directed mutagenesis kit (Stratagene) and confirmed by sequencing. Short hairpin RNAs set for human SALL4 in pLKO.1-puro vector were purchased from Open Biosystems (RHS3979) and knockdown efficiency was further evaluated. Two of them, designated as SALL4shRNA1 and SALL4shRNA 2, were selected for subsequent experiments. The sequences for SALL4 shRNAs and Scramble shRNA are listed as following: SALL4shRNA1: […] (SEQ ID NO: 3); SALL4shRNA 2: CTATTTAGCCAAAGGCAAA (SEQ ID NO: 2); Scr-shRNA: […] (SEQ ID NO: 14)
To assess the biological functional role of SALL4 in endometrial cancer, first evaluated was SALL4 expression in a panel of six endometrial cancer cell lines using quantitative real-time PCR to select for appropriate models for our functional studies (FIG. 40). […]

A further data set has as its system KG1a. Nature of the data set: Cellular uptake of FITC-labeled peptide. The class given is cell-based. The settings on record: no carrier. Here is the method: (§1) Cells were grown typically in 6 well plates (35 mm dish) to 50-70% confluence. Usually the transfect ion efficiency is somehow cell type specific. 2 mM peptide was diluted 4 times in PBS (2 ul+6 ul) (For FITC peptidedo not dilute the 2 mM stock). For each transfection reaction tube with 100 ul PBS+1 ul diluted peptide was set up. Chariot reagent was diluted 1:10 in ddH2O and for each transfection a 94 ul H2O tube+6 ul diluted Chariot was prepared (No master mix for more than 4 transfections). The 2 tubes were carefully mixed by pipetting up and down and incubated 30 min. at room temperature. Medium was aspirated from the dish (well) and cells were overlay with the mix. 400 ul serum free medium was added and cells were incubated further for 1 h 37 C (cell incubator). 500 ul complete medium (with 10% serum) was finally added. If cells are not very sensitive to serum starvation (cancer cell lines) 5% serum could be used.
(§2) Fluorescent and Confocal microscopy was performed on cells treated with FITC labeled peptides with or without of transfection reagent depending on the cell type. Cells were mounted on cover slips using mounting media with DAPI (Invitrogen) and in some cases cytoskeleton dye (Invitrogen).
(§3) In order to evaluate their cellular uptake and localization, the N terminus of these peptides was labeled with fluorescein isothiocyanate (FITC). Despite the net positive charge of these peptides, their uptake by the cells is cell-type specific. Some cell lines such as HL-60 (an AML cell line) allowed the peptide to enter the cells without any modification or carrier, and some cell lines were not penetrable at all. In order to achieve a similar level of peptide delivery in most cell types, a Chariot Transfection Reagent (Active Motif) was used as a peptide carrier, as directed from the manufacturer. All cell types used in the study described herein were subjected to individual evaluation of the percentage of the cells in which the peptide was delivered as well as the duration of time during which they sustained the labeled peptide in the cells. After Chariot treatment, confocal microscopy studies confirmed uptake of these peptides throughout the cell, including nuclei (as evidenced by DAPI overlay, FIG. 1B).

The test system of another data set is AML3. As to the kind of experiment: Cellular uptake of FITC-labeled peptide. The format is cell-based. The settings on record: AML3, no carrier. The method, then:
as §1, §2, §3

In a further data set the test system is CD34+. As to the kind of experiment: Cellular uptake of FITC-labeled peptide. The format is cell-based. The settings on record: with Chariot. Here is the method: as §1, §2, §3
For another data set, the system named is MCF7. Nature of the data set: Cellular uptake of FITC-labeled peptide. The class given is cell-based. The settings on record: MCF7, with Chariot. Here is the method: as §1, §2, §3
The next data set deals with SNU-398. As to the kind of experiment: Cellular uptake of FITC-labeled peptide. The class given is cell-based, human. The settings on record: SNU-398, with Chariot. Here is the method: as §1, §2, §3
Next tested was the cellular uptake and localization of these peptides in various types of cells using FITC-labeled wild type or scrambled peptides. Despite the net positive charge of these peptides, their penetration into cells is cell type-specific. Some cell lines, such as HL-60 (an AML cell line), allowed peptide entry without any modification or facilitator, while others such as SNU-398 were not penetrable at all. […] The overall success rate of peptide uptake by the cells was above 95% with Pep-1, as evaluated by flow cytometry (FIG. 9A). […]

Another data set concerns HuH-7. Nature of the data set: Cellular uptake of FITC-labeled peptide. The format is cell-based, human. The conditions noted are these: HuH-7, with Chariot. Here is the method: as §1, §2, §3
Another data set relates to AML. As to the kind of experiment: Cellular uptake of FITC-labeled peptide. The class given is cell-based, human. The conditions noted are these: with Chariot. The method, then: as §1, §2, §3
A further data set deals with SNU387. Nature of the data set: Cellular uptake of FITC-labeled peptide. The class given is cell-based, human. The settings on record: SNU387, with Chariot. Here is the method:
as §1, §2, §3

The next data set has as its system HL60. Nature of the data set: Cellular uptake of FITC-labeled peptide. The class given is cell-based, human. The settings on record: HL60, no carrier. Here is the method: as §1, §2, §3
The subject of the next data set is SNU398 cells. The conditions noted are these: after addition to cell culture plates.

No end group written: not given here.

From the text for SNU398 cells: Confocal microscopy was next used to study cellular uptake of TAT-WT by SNU398 cells in vitro.

In the case of CCTAAGGTTAAGTCGCCCTCG [scramble shRNA], the metastatic tumor formation entry in the data set with AN3CA cells is reported as “Four out of five”.
“GCCTTGAAACAAGCCAAGCTA (expressed or natural sequence) [SALL4-sh1]”: the “down-regulation of SALL4A and SALL4B” value in the data set with SALL4A and SALL4B was “could down-regulate SALL4A and SALL4B efficiently”.
On to “MSRRAQAKPQHI [Mut peptide, MSRRAQAKPQHI, reference compound]”, for which the “peptide uptake (cells with peptide)” value in the data set with KG1a is reported as >15%; in the data set with AML3, ~10%; in the data set with CD34+ it was 50% (Ch); in the data set with MCF7 it was 70% (Ch); with SNU-398 it was 60% (Ch); with HuH-7, 60% (ch). The “peptide uptake (cells with peptide)” value in the data set with AML was 50% (Ch); in the data set with SNU387 it was 60% (Ch); in the data set with HL60, ~50%.
For the sequence “YGRKKRRQRRRMSRRKQAKPHI [TAT-WT, NH2-YGRKKRRQRRR-MSRRKQAKPHI-COOH]”, in the data set with SNU398 cells, the “time to localization within the nucleus” value was ≤ 15 min.

The record behind these values is patent US9365851B2, “Spalt-like transcription factor 4 (SALL4) and uses thereof” (National University of Singapore, priority 2011, dated 2016).
